Results taken from US20100022584A1, “Modulation of Glutamine Synthetase Activity” (priority 2006, published 2010).

Molecular target: T1, glutamine synthetase mutant S53A Y397V (Escherichia coli, UniProt P0A9C5, S54A/Y398V)
T1 construct: made in house; host or cells: E. coli YMC11 (glutamine synthetase auxotroph), pBluescript II SK+
T1 sequence (P0A9C5 2-469 S54A/Y398V limits assumed): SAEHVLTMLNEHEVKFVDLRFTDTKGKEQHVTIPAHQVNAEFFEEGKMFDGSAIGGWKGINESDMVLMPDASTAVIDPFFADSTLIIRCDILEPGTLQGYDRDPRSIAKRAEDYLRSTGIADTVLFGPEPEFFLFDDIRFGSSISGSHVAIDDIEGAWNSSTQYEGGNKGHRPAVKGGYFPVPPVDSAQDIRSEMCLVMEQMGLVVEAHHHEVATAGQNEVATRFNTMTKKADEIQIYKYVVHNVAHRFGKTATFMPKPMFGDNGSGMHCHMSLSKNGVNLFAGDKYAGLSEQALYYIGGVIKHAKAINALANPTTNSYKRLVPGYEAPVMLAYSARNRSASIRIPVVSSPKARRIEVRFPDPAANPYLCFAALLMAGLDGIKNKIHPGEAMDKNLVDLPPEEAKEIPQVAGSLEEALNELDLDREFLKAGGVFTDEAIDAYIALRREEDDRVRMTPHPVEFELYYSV
Experiment: HPLC forward-reaction glutamine synthetase assay with serine protease inhibitors
Assay type: biochemical, E. coli
Conditions: 1 mM inhibitor; for % Reduction in ADP-based Specific Activity / % Reduction in Glutamine-based Specific Activity: 60 min pre-incubation, vs no-inhibitor control, positive = activity increased; for % Conversion: glutamine-based divided by ADP-based specific activity

Structure (SMILES)	% Reduction in ADP-based Specific Activity (Mn assay)	% Reduction in Glutamine-based Specific Activity (Mn assay)	% Conversion (Mn assay)	inhibition of the enzyme (in words) (HPLC assays)	% Reduction in ADP-based Specific Activity (Mg assay)	% Reduction in Glutamine-based Specific Activity (Mg assay)
O=S(=O)(F)Cc1ccccc1 [PMSF]	+39.67%	+6.07%	63%	–	–	–
NCCc1ccc(S(=O)(=O)F)cc1 [AEBSF]	+14.80%	+5.16%	75%	appeared to cause inhibition	−100.00%	−55.60%
